According to ChEMBL document CHEMBL3046517, “Synthesis and antimicrobial study of fluoroquinolone-based 4-thiazolidinones” (2010):
Converted amounts (≈) assume the structure as drawn.

How the values were obtained:
Format in all cases: functional
[1] = test system: Streptococcus pyogenes; assay: Antibacterial activity against Streptococcus pyogenes by broth dilution method
[2] = test system: Escherichia coli; assay: Antibacterial activity against Escherichia coli by broth dilution method
[3] = test system: Staphylococcus aureus; assay: Antibacterial activity against Staphylococcus aureus by broth dilution method
[4] = test system: Pseudomonas aeruginosa; assay: Antibacterial activity against Pseudomonas aeruginosa by broth dilution method
[5] = test system: Candida albicans; assay: Antifungal activity against Candida albicans by broth dilution method
[6] = test system: Aspergillus niger; assay: Antifungal activity against Aspergillus niger by broth dilution method
[7] = test system: Aspergillus clavatus; assay: Antifungal activity against Aspergillus clavatus by broth dilution method

Molecule | MIC [1] [µg/mL] | MIC [2] [µg/mL] | MIC [3] [µg/mL] | MIC [4] [µg/mL] | MIC [5] [µg/mL] | MIC [6] [µg/mL] | MIC [7] [µg/mL]
GENTAMICIN | 0.5 | 0.05 | 0.25 | 1 | – | – | –
O=C(N/N=C\c1ccc(Cl)cc1)c1cn(C2CC2)c2cc(Cl)c(F)cc2c1=O | 1000 (≈ 2390 µM) | 1000 (≈ 2390 µM) | 1000 (≈ 2390 µM) | 1000 (≈ 2390 µM) | 1000 (≈ 2390 µM) | 500 (≈ 1200 µM) | 500 (≈ 1200 µM)
COc1ccc(N2CCN(c3cc4c(cc3F)c(=O)c(C(=O)N/N=C\c3ccc(O)cc3)cn4C3CC3)CC2)cc1 | 1000 (≈ 1800 µM) | 500 (≈ 900 µM) | 500 (≈ 900 µM) | 200 (≈ 360 µM) | 1000 (≈ 1800 µM) | 1000 (≈ 1800 µM) | 1000 (≈ 1800 µM)
COc1ccc(N2CCN(c3cc4c(cc3F)c(=O)c(C(=O)NN3C(=O)CSC3c3ccccc3Cl)cn4C3CC3)CC2)cc1 (configuration not stated) | 100 (≈ 154 µM) | 1000 (≈ 1540 µM) | 500 (≈ 771 µM) | 500 (≈ 771 µM) | 1000 (≈ 1540 µM) | > 1000 | 1000 (≈ 1540 µM)
O=C(N/N=C\c1ccccc1O)c1cn(C2CC2)c2cc(Cl)c(F)cc2c1=O | 1000 (≈ 2500 µM) | 500 (≈ 1250 µM) | 500 (≈ 1250 µM) | 500 (≈ 1250 µM) | 500 (≈ 1250 µM) | 500 (≈ 1250 µM) | 500 (≈ 1250 µM)
O=C(N[C@H](CO)[C@H](O)c1ccc([N+](=O)[O-])cc1)C(Cl)Cl [CHLORAMPHENICOL] | 50 (≈ 155 µM) | 50 (≈ 155 µM) | 50 (≈ 155 µM) | 50 (≈ 155 µM) | – | – | –
COc1ccc(N2CCN(c3cc4c(cc3F)c(=O)c(C(=O)NN3C(=O)CSC3c3ccc(F)cc3)cn4C3CC3)CC2)cc1 (configuration not stated) | 1000 (≈ 1580 µM) | 1000 (≈ 1580 µM) | 1000 (≈ 1580 µM) | 500 (≈ 792 µM) | 1000 (≈ 1580 µM) | 1000 (≈ 1580 µM) | 1000 (≈ 1580 µM)
O=C(N/N=C\c1ccccc1)c1cn(C2CC2)c2cc(Cl)c(F)cc2c1=O | 1000 (≈ 2610 µM) | 500 (≈ 1300 µM) | 500 (≈ 1300 µM) | 1000 (≈ 2610 µM) | 500 (≈ 1300 µM) | 1000 (≈ 2610 µM) | 1000 (≈ 2610 µM)
COc1ccc(N2CCN(c3cc4c(cc3F)c(=O)c(C(=O)N/N=C\c3cccc([N+](=O)[O-])c3)cn4C3CC3)CC2)cc1 | 500 (≈ 855 µM) | 1000 (≈ 1710 µM) | 1000 (≈ 1710 µM) | 500 (≈ 855 µM) | 1000 (≈ 1710 µM) | 1000 (≈ 1710 µM) | 1000 (≈ 1710 µM)
COc1ccc(N2CCN(c3cc4c(cc3F)c(=O)c(C(=O)N/N=C\c3ccccc3)cn4C3CC3)CC2)cc1 | 500 (≈ 927 µM) | 500 (≈ 927 µM) | 1000 (≈ 1850 µM) | 500 (≈ 927 µM) | 500 (≈ 927 µM) | 500 (≈ 927 µM) | 500 (≈ 927 µM)
COC1=CC(=O)C[C@@H](C)[C@]12Oc1c(Cl)c(OC)cc(OC)c1C2=O [GRISEOFULVIN] | – | – | – | – | 500 (≈ 1420 µM) | 100 (≈ 283 µM) | 100 (≈ 283 µM)
COc1ccc(N2CCN(c3cc4c(cc3F)c(=O)c(C(=O)NN3C(=O)CSC3c3cccc([N+](=O)[O-])c3)cn4C3CC3)CC2)cc1 (configuration not stated) | 1000 (≈ 1520 µM) | 500 (≈ 759 µM) | 500 (≈ 759 µM) | 200 (≈ 304 µM) | 1000 (≈ 1520 µM) | 1000 (≈ 1520 µM) | > 1000
COc1ccc(N2CCN(c3cc4c(cc3F)c(=O)c(C(=O)N/N=C\c3ccccc3O)cn4C3CC3)CC2)cc1 | 500 (≈ 900 µM) | 500 (≈ 900 µM) | 500 (≈ 900 µM) | 500 (≈ 900 µM) | 500 (≈ 900 µM) | 500 (≈ 900 µM) | > 1000
O=C(O)c1cn(C2CC2)c2cc(Cl)c(F)cc2c1=O | 100 (≈ 355 µM) | 100 (≈ 355 µM) | 100 (≈ 355 µM) | 100 (≈ 355 µM) | 500 (≈ 1780 µM) | 1000 (≈ 3550 µM) | 1000 (≈ 3550 µM)
COc1ccc(C2SCC(=O)N2NC(=O)c2cn(C3CC3)c3cc(N4CCN(c5ccc(OC)cc5)CC4)c(F)cc3c2=O)cc1 (configuration not stated) | 1000 (≈ 1550 µM) | 500 (≈ 777 µM) | 1000 (≈ 1550 µM) | 500 (≈ 777 µM) | 500 (≈ 777 µM) | 500 (≈ 777 µM) | > 1000
O=C(N/N=C\c1ccc(F)cc1)c1cn(C2CC2)c2cc(Cl)c(F)cc2c1=O | 500 (≈ 1240 µM) | 500 (≈ 1240 µM) | 500 (≈ 1240 µM) | 500 (≈ 1240 µM) | 1000 (≈ 2490 µM) | 1000 (≈ 2490 µM) | 1000 (≈ 2490 µM)
COc1ccc(N2CCN(c3cc4c(cc3F)c(=O)c(C(=O)N/N=C\c3ccc(O)c(OC)c3)cn4C3CC3)CC2)cc1 | 500 (≈ 854 µM) | 150 (≈ 256 µM) | 500 (≈ 854 µM) | 200 (≈ 342 µM) | 1000 (≈ 1710 µM) | 1000 (≈ 1710 µM) | 1000 (≈ 1710 µM)
CCn1cc(C(=O)O)c(=O)c2cc(F)c(N3CCNCC3)cc21 [NORFLOXACIN] | 10 (≈ 31.3 µM) | 10 (≈ 31.3 µM) | 10 (≈ 31.3 µM) | 10 (≈ 31.3 µM) | – | – | –
COc1ccc(N2CCN(c3cc4c(cc3F)c(=O)c(C(=O)NN3C(=O)CSC3c3ccc(Cl)cc3)cn4C3CC3)CC2)cc1 (configuration not stated) | 1000 (≈ 1540 µM) | 500 (≈ 771 µM) | 100 (≈ 154 µM) | 500 (≈ 771 µM) | 1000 (≈ 1540 µM) | 500 (≈ 771 µM) | > 1000
COc1ccc(N2CCN(c3cc4c(cc3F)c(=O)c(C(=O)NN3C(=O)CSC3c3ccc(O)cc3)cn4C3CC3)CC2)cc1 (configuration not stated) | 500 (≈ 794 µM) | 500 (≈ 794 µM) | 500 (≈ 794 µM) | 500 (≈ 794 µM) | 1000 (≈ 1590 µM) | 1000 (≈ 1590 µM) | > 1000
